Data: publication PMC10470313, “Developing a peptide to disrupt cohesin head domain interactions” (iScience, 2023)
Where no end group is shown, it is not given here.

Legend:
[1] = system: yME-961 strain yeast cells; assay: Sister chromatid cohesion GFP dot assay; type: cell-based; settings: peptide 1 h at G1, release, G2/M arrest
Procedure: Figure 4 CIP3 inhibits sister chromatid cohesion and chromosome condensation (A) Flowchart outlining the sister chromatid cohesion assay. (B) yME-961 strain cells were grown and treated with peptides, as shown in A. Premature sister chromatid separation was determined by counting the number of cells showing two GFP dots. At least 300 cells were counted in 3 independent experiments. ∗∗p < 0.001. (C) Cells were grown to mid-log phase. The culture was divided into two flasks, one being treated with CIP3-TAT. Condensation was determined in cells at the G2/M phase by 2-photon microscopy. ∗∗p < 0.001. (D) yKS-008 strain (Smc3-V5) cells were grown and treated with CIP3-TAT peptide, as shown in A. Cells were processed for ChIP with antibodies against V5.
The potential of CIP3-TAT to inhibit cohesion activity was explored by analyzing sister chromatid cohesion in cells arrested at the G2/M. Inserted in the LYS4 locus were LacO arrays, which bind LacI-GFP. In unperturbed cells arrested at the G2/M phase of the cell cycle, cohesin tethers the sister chromatids visualized under the microscope as a single GFP dot. When cohesin is inactivated, the sister chromatids fall apart and are seen as two distinctive GFP dots. yME-961 strain cells were grown to mid-log phase and arrested at the G1 phase of the cell cycle. […]

[2] = system: U2OS cells; assay: Mitosis time in U2OS cells (live-cell imaging); type: cell-based, human; settings: 10 nM peptide, 20 h, images every 5 min
Procedure: CIP3 was derived from a highly conserved region of Smc1 (Figure 1D). Therefore, we sought to test its ability to affect cohesin activity in human cells. U2OS cells were diluted into a 96-well plate and grown for about 20 h. Added to this was 10 nM peptide and the cells were grown for another 20 h. Images of the cells were taken every 5 min (Figure 5A). We expected cohesion loss to result in a mitotic delay. We calculated mitosis time starting from the first image in which condensed mitotic chromosomes were visualized until their disappearance at mitosis exit. Strikingly, the average mitosis time in CIP3-TAT treated cells increased by about 10% (from 6 to 6.5 min), indicating a mitotic delay (Figure 5B).
Figure 5 CIP3 causes a mitotic delay in human cells U2OS cells were plated in a 96-well plate and grown for 20 h to allow adherence. […] Mitosis length was determined by counting the number of images in which mitotic chromosomes were visualized. […] (B) Quantitation of mitosis length in untreated and CIP3-TAT treated cells. At least 300 cells were counted for each condition. ∗∗∗p < 0.0001.
U2OS cells were maintained in Dulbecco's Modified Eagle Medium (DMEM) (Gibco) with 10% fetal bovine serum (FBS) (Corning), 2 mM l-glutamine (Gibco), 1% penicillin-streptomycin (Gibco), and 1 mM sodium pyruvate (Gibco), at 37°C, 5% CO2. […] The significance between conditions was determined by using Student's t-test.

## KRFKDMEYLSGGEKTGGYGRKKRRQRRR [CIP3-TAT]
[1]
  sister chromatid cohesion level: precocious separation of the sister chromatids
[1]; LacO at LYS4, at least 300 cells in 3 independent experiments
  cells with precocious separation of sister chromatids (two GFP dots): approximately 80%
[2]; untreated: 6 min, at least 300 cells per condition
  average mitosis time: 6.5 min
[2]; vs untreated
  increase of average mitosis time: about 10%
